pIC50: −log10 of the molar value. Active and inactive are the calls of the source. No cut-off for these calls is given here.
Legend:
fMet-Leu-Phe receptor [1] = molecular target: T1, fMet-Leu-Phe receptor (Homo sapiens, UniProt P21462); experiment: Antagonist activity at human FPR1 in human neutrophils assessed as inhibition of fMLF-stimulated intracellular calcium mobilisation by FLIPR assay; type: functional, cell-based
T1 sequence (P21462 whole entry): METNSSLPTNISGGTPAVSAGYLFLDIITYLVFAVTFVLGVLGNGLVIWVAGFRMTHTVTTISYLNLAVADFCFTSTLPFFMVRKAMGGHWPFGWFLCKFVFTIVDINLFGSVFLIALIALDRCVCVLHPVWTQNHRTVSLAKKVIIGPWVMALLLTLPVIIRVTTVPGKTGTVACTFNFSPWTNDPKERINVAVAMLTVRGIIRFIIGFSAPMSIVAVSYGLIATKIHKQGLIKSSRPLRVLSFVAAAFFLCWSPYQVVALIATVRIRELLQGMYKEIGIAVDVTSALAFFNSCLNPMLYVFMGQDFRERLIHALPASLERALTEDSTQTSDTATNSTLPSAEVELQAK

[2] = molecular target: T2, fMet-Leu-Phe receptor (Homo sapiens) (UniProt P21462); experiment: Antagonist activity at human FPR1 in human neutrophils assessed as inhibition of fMLF-stimulated intracellular calcium mobilisation at 50 uM by FLIPR assay; type: functional, cell-based
T2 sequence (whole entry): T1 sequence (P21462 whole entry)

[3] = Fraction unbound in human; type: ADME, organism-based; settings: in vivo
[4] = Chemical stability of the compound assessed as half life; type: physicochemical
[5] = Intrinsic clearance in human hepatocytes assessed per 10 '6 cells; type: ADME, cell-based, Liver, Hepatocyte
[6] = Intrinsic clearance in Sprague-Dawley rat hepatocytes assessed per 10 '6 cells; type: ADME, cell-based, Liver, Hepatocyte
Cavia porcellus = species: Cavia porcellus; experiment: Inhibition of guinea pig FPR1
Rattus norvegicus = species: Rattus norvegicus; experiment: Inhibition of rat FPR1
[7] = Intrinsic clearance in Sprague-Dawley rat microsomes; type: ADME, Microsome
Cytochrome P450 2D6 = Cytochrome P450 2D6 (Homo sapiens, UniProt P10635); experiment: Inhibition of CYP2D6; type: ADME
Sequence of Cytochrome P450 2D6 (P10635 whole entry): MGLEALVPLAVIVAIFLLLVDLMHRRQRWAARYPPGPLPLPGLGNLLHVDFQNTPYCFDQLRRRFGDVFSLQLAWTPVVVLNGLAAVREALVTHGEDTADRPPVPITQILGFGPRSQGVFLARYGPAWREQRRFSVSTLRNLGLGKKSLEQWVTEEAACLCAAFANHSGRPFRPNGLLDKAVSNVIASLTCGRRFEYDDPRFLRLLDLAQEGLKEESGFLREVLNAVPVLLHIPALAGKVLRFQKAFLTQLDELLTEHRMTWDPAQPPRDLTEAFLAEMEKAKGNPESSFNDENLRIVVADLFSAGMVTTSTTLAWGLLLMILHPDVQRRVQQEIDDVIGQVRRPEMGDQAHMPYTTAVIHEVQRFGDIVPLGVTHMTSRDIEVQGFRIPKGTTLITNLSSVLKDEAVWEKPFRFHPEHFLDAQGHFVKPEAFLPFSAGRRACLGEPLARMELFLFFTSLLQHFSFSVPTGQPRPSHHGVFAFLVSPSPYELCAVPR

[8] = Intrinsic clearance in human microsomes; type: ADME, Microsome
[9] = Lipophilicity, log D of the compound; type: physicochemical; settings: octanol/water
[10] = Solubility of the compound; type: physicochemical
Cytochrome P450 1A2 = molecular target: T3, Cytochrome P450 1A2 (Homo sapiens, UniProt P05177); experiment: Inhibition of CYP1A2; type: ADME
T3 sequence (P05177 whole entry): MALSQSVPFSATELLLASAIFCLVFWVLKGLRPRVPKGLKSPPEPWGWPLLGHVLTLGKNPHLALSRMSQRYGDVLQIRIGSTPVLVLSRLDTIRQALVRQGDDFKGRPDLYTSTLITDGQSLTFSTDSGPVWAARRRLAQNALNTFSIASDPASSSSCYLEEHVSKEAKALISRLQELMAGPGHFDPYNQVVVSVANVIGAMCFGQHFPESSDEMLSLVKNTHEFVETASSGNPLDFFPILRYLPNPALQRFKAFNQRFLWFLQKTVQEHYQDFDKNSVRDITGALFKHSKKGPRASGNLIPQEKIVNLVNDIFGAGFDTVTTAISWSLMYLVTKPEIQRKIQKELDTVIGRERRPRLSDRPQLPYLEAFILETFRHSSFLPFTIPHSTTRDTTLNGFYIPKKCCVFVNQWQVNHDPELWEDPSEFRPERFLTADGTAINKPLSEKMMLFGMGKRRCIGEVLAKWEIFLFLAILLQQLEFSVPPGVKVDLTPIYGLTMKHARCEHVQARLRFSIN

Cytochrome P450 2C9 = Cytochrome P450 2C9 (Homo sapiens, UniProt P11712); experiment: Inhibition of CYP2C9; type: ADME
Sequence of Cytochrome P450 2C9 (P11712 whole entry): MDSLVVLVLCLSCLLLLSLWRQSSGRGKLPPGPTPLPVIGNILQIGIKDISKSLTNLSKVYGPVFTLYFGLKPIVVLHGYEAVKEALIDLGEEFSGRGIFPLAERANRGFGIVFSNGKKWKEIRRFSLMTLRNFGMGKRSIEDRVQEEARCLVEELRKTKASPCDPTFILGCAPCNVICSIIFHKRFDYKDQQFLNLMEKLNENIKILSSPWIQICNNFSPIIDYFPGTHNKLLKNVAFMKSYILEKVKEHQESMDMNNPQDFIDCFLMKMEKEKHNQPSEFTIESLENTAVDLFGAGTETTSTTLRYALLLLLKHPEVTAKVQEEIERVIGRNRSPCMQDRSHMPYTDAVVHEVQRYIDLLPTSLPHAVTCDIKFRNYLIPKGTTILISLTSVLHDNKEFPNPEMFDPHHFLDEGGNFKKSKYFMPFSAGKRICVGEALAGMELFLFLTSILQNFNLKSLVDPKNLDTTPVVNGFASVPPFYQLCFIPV

fMet-Leu-Phe receptor [11] = molecular target: T1, fMet-Leu-Phe receptor; experiment: Antagonist activity at FPR1 in whole blood assessed as CD11 level; type: functional, tissue-based; settings: read-out: pA2 (converted)
Cytochrome P450 2C19 = Cytochrome P450 2C19 (Homo sapiens, UniProt P33261); experiment: Inhibition of CYP2C19; type: ADME
Sequence of Cytochrome P450 2C19 (P33261 whole entry): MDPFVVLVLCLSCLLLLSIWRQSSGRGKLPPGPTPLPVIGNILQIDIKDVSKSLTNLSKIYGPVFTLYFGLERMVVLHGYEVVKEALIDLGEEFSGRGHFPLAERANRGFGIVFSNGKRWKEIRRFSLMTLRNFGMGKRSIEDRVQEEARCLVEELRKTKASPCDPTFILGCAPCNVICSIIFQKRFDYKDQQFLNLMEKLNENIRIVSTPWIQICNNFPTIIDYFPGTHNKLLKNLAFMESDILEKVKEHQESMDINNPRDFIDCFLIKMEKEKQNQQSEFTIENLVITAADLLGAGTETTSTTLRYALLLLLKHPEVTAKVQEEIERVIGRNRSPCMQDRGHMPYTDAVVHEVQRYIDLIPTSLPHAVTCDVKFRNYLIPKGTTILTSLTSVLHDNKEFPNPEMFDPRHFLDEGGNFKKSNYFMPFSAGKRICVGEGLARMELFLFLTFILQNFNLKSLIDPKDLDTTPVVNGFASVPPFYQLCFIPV

[12] = molecular target: T4, fMet-Leu-Phe receptor (Mus musculus) (UniProt P33766); experiment: Inhibition of mouse FPR1
T4 sequence (whole entry): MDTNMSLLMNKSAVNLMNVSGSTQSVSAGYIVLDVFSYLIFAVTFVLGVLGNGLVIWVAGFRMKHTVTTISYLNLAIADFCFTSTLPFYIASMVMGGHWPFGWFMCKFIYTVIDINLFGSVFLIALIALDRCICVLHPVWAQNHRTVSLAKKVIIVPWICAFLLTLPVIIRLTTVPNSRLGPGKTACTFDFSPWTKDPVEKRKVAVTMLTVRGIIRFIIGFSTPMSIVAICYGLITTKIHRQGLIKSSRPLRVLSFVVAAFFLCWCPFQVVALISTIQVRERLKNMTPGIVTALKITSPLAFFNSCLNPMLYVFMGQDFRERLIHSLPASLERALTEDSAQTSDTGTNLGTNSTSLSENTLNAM

Cytochrome P450 3A4 = Cytochrome P450 3A4 (Homo sapiens, UniProt P08684); experiment: Inhibition of CYP3A4; type: ADME
Sequence of Cytochrome P450 3A4 (P08684 whole entry): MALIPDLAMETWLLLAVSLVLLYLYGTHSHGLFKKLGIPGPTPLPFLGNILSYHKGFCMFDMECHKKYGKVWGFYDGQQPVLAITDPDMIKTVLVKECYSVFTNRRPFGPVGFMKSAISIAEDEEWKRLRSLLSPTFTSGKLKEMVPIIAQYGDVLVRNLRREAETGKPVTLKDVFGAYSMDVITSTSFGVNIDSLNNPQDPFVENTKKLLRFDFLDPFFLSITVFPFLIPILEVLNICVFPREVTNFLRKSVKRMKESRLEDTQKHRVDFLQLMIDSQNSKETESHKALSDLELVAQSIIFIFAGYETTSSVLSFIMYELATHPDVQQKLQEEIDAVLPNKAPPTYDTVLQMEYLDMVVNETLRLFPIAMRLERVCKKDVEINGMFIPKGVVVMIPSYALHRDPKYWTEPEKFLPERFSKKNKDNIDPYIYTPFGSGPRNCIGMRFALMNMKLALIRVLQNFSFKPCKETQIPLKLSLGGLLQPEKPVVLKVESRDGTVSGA

[13] = Fraction unbound in rat; type: ADME, organism-based; settings: in vivo

SMILES: Cc1nn(-c2ccccc2)c(NS(=O)(=O)C2CCCCC2)c1C(=O)N[C@@H](C)C(C)(C)C
- pIC50 (fMet-Leu-Phe receptor [1]): 6.00

SMILES: Cc1ccc(S(=O)(=O)Nc2c(C(=O)NC3CCN(C)CC3)cnn2-c2ccccc2)cc1
- inhibition [2]: < 25%

SMILES: Cc1ccc(S(=O)(=O)Nc2c(C(=O)N[C@@H](C)C(C)(C)C)c(C)nn2-c2ccccc2)cc1
- fraction unbound [3]: 0.011
- half-life [4]: > 41.7 days
- hepatocyte CLint [5]: 7 µL/min/1e6 cells
- hepatocyte CLint [6]: 12 µL/min/1e6 cells
- inhibition (Cavia porcellus): inactive
- inhibition (Rattus norvegicus): inactive
- microsomal CLint [7]: 53 µL/min/mg
- pIC50 (Cytochrome P450 2D6): < 5.00
- microsomal CLint [8]: 40 µL/min/mg
- logD [9]: 1.4
- solubility [10]: > 1000 µM
- pIC50 (Cytochrome P450 1A2): < 5.00
- pIC50 (Cytochrome P450 2C9): < 5.00
- Kb (fMet-Leu-Phe receptor [11]): 398 nM
- pIC50 (Cytochrome P450 2C19): < 5.00
- inhibition [12]: inactive
- pIC50 (Cytochrome P450 3A4): < 5.00
- fraction unbound [13]: 0.042
- pIC50 (fMet-Leu-Phe receptor [1]): 7.10

SMILES: Cc1ccc(S(=O)(=O)Nc2c(C(=O)NC3CCOCC3)cnn2-c2ccccc2)cc1
- pIC50 (fMet-Leu-Phe receptor [1]): 5.00

SMILES: Cc1ccc(S(=O)(=O)Nc2c(C(=O)N[C@@H](C)C(C)(C)C)c(C(F)(F)F)nn2-c2ccccc2)cc1
- pIC50 (fMet-Leu-Phe receptor [1]): 7.60

SMILES: Cc1nn(-c2ccc(F)cc2)c(NS(=O)(=O)c2cccnc2)c1C(=O)N[C@@H](C)C(C)(C)C
- pIC50 (fMet-Leu-Phe receptor [1]): 6.00

SMILES: Cc1ccc(S(=O)(=O)Nc2c(C(=O)NC3CCCCC3C)c(C)nn2-c2ccccc2)cc1 (mixture of isomers)
- pIC50 (fMet-Leu-Phe receptor [1]): 6.80

SMILES: Cc1nn(-c2ccccc2)c(NS(=O)(=O)c2cccc(CN3CCOCC3)c2)c1C(=O)N[C@@H](C)C(C)(C)C
- inhibition [2]: < 25%

SMILES: CCC(CC)NC(=O)c1c(C)nn(-c2ccccc2)c1NS(=O)(=O)c1ccc(C)cc1
- pIC50 (fMet-Leu-Phe receptor [1]): 6.30

SMILES: Cc1ccc(S(=O)(=O)Nc2c(C(=O)NC(C)C)c(C)nn2-c2ccccc2)cc1
- pIC50 (fMet-Leu-Phe receptor [1]): 5.20

SMILES: CCC(CC)NC(=O)c1cnn(-c2ccccc2)c1NS(=O)(=O)C1CCCC1
- pIC50 (fMet-Leu-Phe receptor [1]): 5.30

SMILES: Cc1ccc(S(=O)(=O)Nc2c(C(=O)NCc3ccccc3)cnn2-c2ccccc2)cc1
- pIC50 (fMet-Leu-Phe receptor [1]): 5.00

SMILES: CCC(CC)NC(=O)c1cnn(Cc2ccccc2)c1NS(=O)(=O)c1ccc(C)cc1
- pIC50 (fMet-Leu-Phe receptor [1]): 5.30

SMILES: CNC(=O)c1cnn(-c2ccccc2)c1NS(=O)(=O)c1ccc(C)cc1
- inhibition [2]: < 25%

SMILES: CCCC(CC)NC(=O)c1cnn(-c2ccccc2)c1NS(=O)(=O)c1ccc(C)cc1 (configuration not stated)
- pIC50 (fMet-Leu-Phe receptor [1]): 6.50

SMILES: CCC(CC)NC(=O)c1cnn(-c2ccccc2)c1NS(=O)(=O)c1ccc(-c2cnco2)cc1
- pIC50 (fMet-Leu-Phe receptor [1]): 5.30

SMILES: Cc1ccc(S(=O)(=O)Nc2c(C(=O)NC(C)C(C)(C)C)c(C)nn2-c2ccccc2)cc1 (configuration not stated)
- pIC50 (fMet-Leu-Phe receptor [1]): 6.90

SMILES: CCC(CC)NC(=O)c1cnn(-c2ccccc2)c1NS(=O)(=O)c1ccccc1
- pIC50 (fMet-Leu-Phe receptor [1]): 5.30

SMILES: Cc1nn(-c2ccc(F)cc2)c(NS(=O)(=O)c2ccc(C#N)cc2)c1C(=O)N[C@@H](C)C(C)(C)C
- fraction unbound [3]: 0.06
- half-life [4]: > 41.7 days
- hepatocyte CLint [5]: < 3 µL/min/1e6 cells
- hepatocyte CLint [6]: 4 µL/min/1e6 cells
- inhibition (Cavia porcellus): inactive
- inhibition (Rattus norvegicus): inactive
- microsomal CLint [7]: 13 µL/min/mg
- pIC50 (Cytochrome P450 2D6): < 5.00
- microsomal CLint [8]: 5 µL/min/mg
- logD [9]: 0.5
- solubility [10]: > 1000 µM
- pIC50 (Cytochrome P450 1A2): < 5.00
- pIC50 (Cytochrome P450 2C9): < 5.00
- Kb (fMet-Leu-Phe receptor [11]): 126 nM
- pIC50 (Cytochrome P450 2C19): < 5.00
- inhibition [12]: inactive
- pIC50 (Cytochrome P450 3A4): < 5.00
- fraction unbound [13]: 0.1
- pIC50 (fMet-Leu-Phe receptor [1]): 7.60

SMILES: CCC(CC)NC(=O)c1ncn(-c2ccccc2)c1NS(=O)(=O)c1ccc(C)cc1
- pIC50 (fMet-Leu-Phe receptor [1]): 5.80

SMILES: CCC(C)NC(=O)c1c(C)nn(-c2ccccc2)c1NS(=O)(=O)c1ccc(C)cc1 (configuration not stated)
- pIC50 (fMet-Leu-Phe receptor [1]): 6.80

SMILES: CCC(CC)NC(=O)c1cn(-c2ccccc2)nc1NS(=O)(=O)c1ccc(C)cc1
- pIC50 (fMet-Leu-Phe receptor [1]): 5.00

SMILES: CCC(CC)NC(=O)c1cnn(C)c1NS(=O)(=O)c1ccc(C)cc1
- inhibition [2]: < 25%

SMILES: CCC(CC)NC(=O)c1cnn(C(C)C)c1NS(=O)(=O)c1ccc(C)cc1
- pIC50 (fMet-Leu-Phe receptor [1]): 5.00

SMILES: CCC(CC)NC(=O)c1nnn(-c2ccccc2)c1NS(=O)(=O)c1ccc(C)cc1
- pIC50 (fMet-Leu-Phe receptor [1]): 5.40

SMILES: Cc1ccc(S(=O)(=O)Nc2c(C(=O)NC3CCOCC3)c(C)nn2-c2ccccc2)cc1
- pIC50 (fMet-Leu-Phe receptor [1]): 5.30

SMILES: Cc1ccc(S(=O)(=O)Nc2c(C(=O)N[C@H](C)C(C)(C)C)c(C)nn2-c2ccccc2)cc1
- pIC50 (fMet-Leu-Phe receptor [1]): 6.30

SMILES: Cc1ccc(S(=O)(=O)Nc2c(C(=O)NC3CCCCC3)c(C)nn2-c2ccccc2)cc1
- pIC50 (fMet-Leu-Phe receptor [1]): 6.10

SMILES: CCC(CC)NC(=O)c1cnn(-c2ccccn2)c1NS(=O)(=O)c1ccc(C)cc1
- pIC50 (fMet-Leu-Phe receptor [1]): 4.70

SMILES: CCC(CC)NC(=O)c1cnn(-c2ccccc2)c1NS(=O)(=O)c1ccc(C)cc1
- pIC50 (fMet-Leu-Phe receptor [1]): 5.70

SMILES: Cc1ccc(S(=O)(=O)Nc2c(C(=O)NC3CCCCC3C)cnn2-c2ccccc2)cc1 (mixture of isomers)
- pIC50 (fMet-Leu-Phe receptor [1]): 6.00

SMILES: Cc1ccc(S(=O)(=O)Nc2c(C(=O)NC3CCCCC3)cnn2-c2ccccc2)cc1
- pIC50 (fMet-Leu-Phe receptor [1]): 5.40

SMILES: CCC(CC)NC(=O)c1cnn(-c2ccccc2)c1NS(=O)(=O)c1ccccc1C
- pIC50 (fMet-Leu-Phe receptor [1]): 5.20

SMILES: Cc1ccc(S(=O)(=O)Nc2c(C(=O)NCc3ccc(C)cc3C)cnn2-c2ccccc2)cc1
- pIC50 (fMet-Leu-Phe receptor [1]): 6.10

SMILES: Cc1nn(-c2ccc(F)cc2)c(NS(=O)(=O)c2ccc(C(F)(F)F)cc2)c1C(=O)N[C@@H](C)C(C)(C)C
- pIC50 (fMet-Leu-Phe receptor [1]): 7.90

SMILES: Cc1ccc(S(=O)(=O)Nc2c(C(=O)N(C)C3CCCCC3)cnn2-c2ccccc2)cc1
- pIC50 (fMet-Leu-Phe receptor [1]): 5.80

SMILES: CCN(C(=O)c1cnn(-c2ccccc2)c1NS(=O)(=O)c1ccc(-c2cnco2)cc1)C1CCCCC1
- pIC50 (fMet-Leu-Phe receptor [1]): 7.10

SMILES: Cc1ccc(S(=O)(=O)Nc2c(C(=O)N(C)C3CCCCC3)c(C)nn2-c2ccccc2)cc1
- pIC50 (fMet-Leu-Phe receptor [1]): 5.50

SMILES: Cc1ccc(S(=O)(=O)Nc2c(C(=O)NCC(C)(C)C)c(C)nn2-c2ccccc2)cc1
- pIC50 (fMet-Leu-Phe receptor [1]): 5.70

SMILES: CCC(CC)NC(=O)c1cnn(-c2ccccc2Cl)c1NS(=O)(=O)c1ccc(C)cc1
- pIC50 (fMet-Leu-Phe receptor [1]): 5.00

SMILES: CCC(CC)NC(=O)c1cnn(-c2ccc(C#N)cc2)c1NS(=O)(=O)c1ccc(C)cc1
- pIC50 (fMet-Leu-Phe receptor [1]): 4.80

— ChEMBL document CHEMBL1914348, “Discovery of pyrazoles as novel FPR1 antagonists” (Bioorg Med Chem Lett, 2011)
